According to US20060039866A1, “Method for treating sleep-related breathing disorders” (Cypress Bioscience, Inc., priority 2004, published 2006):

Legend:
[1] = treating OSA with MER 810; details: in vivo
Source text: The latter has been associated with worsening OSA symptoms due to reduction in upper airway tone in animal models. However, this pharmacology may also increase SWS and increase respiratory drive via peripheral effects, while its serotonin (5-HT) reuptake inhibition and 5-HT1A agonist activities decrease REM sleep. The 5-HT1A agonist activity also increases respiratory drive and may increase upper airway muscle tone (Homer). Adding a noradrenergic alpha1 agonist, alpha2 antagonist or reuptake inhibitor bolsters the latter effect.

[2] = system: patients with sleep apnea; details: cited from earlier work; for benefit in OSAS / obstructive sleep apnea: individuals with obstructive apnea
[3] = system: animal model of sleep apnea; details: cited from earlier work
rat model = details: cited from earlier work
[4] = individuals with obstructive sleep apnea

## CC1CN(c2cccc(Cl)c2)CCN1CCCn1nc2ccccn2c1=O (stereo not shown) [MER 810]
[1]
  effectiveness in treating OSA: quite effective

## CC(=O)Nc1nnc(S(N)(=O)=O)s1 [acetazolamide, N-(5-[Aminosulfonyl]-1,3,4-thiadiazol-2-yl)acetamide]
[2]; Whyte et al., Sleep
  apnea/hypopnea frequency: improvement in apnea/hypopnea frequency
  frequency of 4% desaturation: decreased the frequency of 4% desaturation

## CNCCCC1c2ccccc2C=Cc2ccccc21 [Protriptyline]
[2]; individuals with OSAS
  results of several small trials: variable results
[2]; several small trials
  side effects: frequent and significant side effects

## CCN1CC(CCN2CCOCC2)C(c2ccccc2)(c2ccccc2)C1=O (stereo not shown) [doxapram]
[2]; [4]
  average arterial oxygen saturation: did not alter
  length of apneas: decrease the length of apneas

## C=CCN1CC[C@]23c4c5ccc(O)c4O[C@H]2C(=O)CC[C@@]3(O)[C@H]1C5 [naloxone]
[2]
  benefit in OSAS / obstructive sleep apnea: only slightly helpful

## medroxyprogesterone
[2]
  benefit in OSAS / obstructive sleep apnea: no consistent benefit

## Nc1ncnc2c1ncn2[C@@H]1O[C@H](CO)[C@@H](O)[C@H]1O [adenosine]
[3]
  reducing apnea: somewhat effective

## CN1CCN2c3ncccc3Cc3ccccc3C2C1 (stereo not shown) [mirtazapine, 1,2,3,4,10,14b-hexahydro-2-methylpyrazino[2,1-a]pyrido[2,3-c]benzazepine]
Rat model
  efficacy in the rat model: appeared effective

## Cn1c(=O)c2[nH]cnc2n(C)c1=O [theophylline]
[2]
  benefit in OSAS / obstructive sleep apnea: of no use
[2]; patients with central apnea
  benefit in central apnea: may benefit
